Experiments:
[1] = molecular target: T1, γ-secretase (HeLa membrane) (Homo sapiens, UniProt P49768); assay: In vitro N1-Sb1 γ-secretase assay (ALPHA detection with SM320), HeLa membrane; type: biochemical; conditions: 0.25% CHAPSO; for IC50: read-out: IC50 in inhibiting N1-Sb1 cleavage
T1 construct: host or cells: HeLa-S3 cells, total membrane fraction
Procedure: (§1) HeLa membrane fraction was isolated from HeLa-S3 cells (National Cell Culture Center). The cell pellet was resuspended in Buffer A (50 mM MES, 150 mM KCl, 5 mM CaCl2, 5 mM MgCl2) and lysed by passage through a French Press. N2a cells (murine neuroblastoma cells) over-expressing wild-type PS1, or mutants M146L or E280A, were obtained from Dr. Sangram Sisodia (University of Chicago, Chicago, Ill.). These cells were maintained in 50% Dulbecco's modified Eagle's medium high glucose, 50% Opti-Mem Reduced Serum Media, and 10% fetal calf serum. Cultured cells were pelleted by centrifugation and resuspended in hypotonic buffer (40 mM Tris, pH 7.4, 10 mM NaCl, 1 mM EDTA, and 0.5 mM DTT) for 20 minutes before being lysed with a dounce homogenizer. Nuclear debris from the HeLa and N2a cells were pelleted at 3000 rpm for 30 minutes. The resulting supernatants were ultracentrifuged at 100,000×g for 1 hour. The pellet that contained total cell membrane was resuspended in Buffer A. Mouse brains overexpressing knock-in wild type or M146V PS1 (gift from Dr. Hui Zheng, Amylin Pharmaceuticals, San Diego, Calif.) were homogenized with dounce homogenizer. The cell lysate was centrifuged at 3000 rpm for 30 minutes. The supernatants were ultracentrifuged at 100,000×g for 1 hour. Protein concentration was determined with the DC Protein Assay Kit according to the manufacturer's instructions (Bio-Rad, Hercules, Calif.).
An in vitro γ-secretase assay using a novel recombinant APP-derived substrate (termed “Sb4”) is disclosed in co-pending application U.S. Ser. No. 12/776,141. In the present assay based on a Notch-derived substrate, N1-Sb1 was incubated with the cell membrane fraction, prepared as described above, in the presence of 0.25% CHAPSO and 1×PIPES buffer (50 mM PIPES, pH 7.0, 150 mM KCl, 5 mM CaCl2, 5 mM MgCl2. The reaction was incubated at 37° C. for 2 hours. The Perkin Elmer AlphaScreen™ detection system was employed to assay for Notch cleavage. AlphaScreen (PerkinElmer Life and Analytical Sciences, Shelton, Conn.) is a bead based non-radioactive Amplified Luminescent Proximity Homogeneous Assay (ALPHA). When a biological interaction brings the beads together, a cascade of chemical reactions acts to produce a greatly amplified signal. Specifically, upon laser excitation, a photosensitizer in the “Donor” bead converts ambient (triplet) oxygen to the more reactive singlet state. […] As a result no fluorescence signal at 520-620 nm is produced.
In the present system, antibody SM320, Protein A-conjugated acceptor beads, and Streptavidin-conjugated donor beads (PerkinElmer) were added to the reaction at a final concentration of 0.2 μg/ml, 2.5 μg/ml and 5 μg/ml, respectively (diagrammed in FIG. 5A). […] The ALPHA signal was detected using the Envision plate reader (Perkin Elmer). The reactions were excited at 680 nm and signal was detected at 615 nm.
HeLa membrane was incubated with N1-Sb1 substrate in the presence of 0.25% CHAPSO. The γ-secretase cleavage product (cN1-Sb1) was detected by the PerkinElmer proximity assay (ALPHA) using the SM320 antibody, Protein A-conjugated acceptor-beads (which bind SM320) and streptavidin-conjugated donor-beads (which bind biotin) (FIG. 5A). cN1-Sb1 levels in DMSO-treated assay was 10-fold higher than in the presence of the inhibitor L-685,458 (L458; structure shown below)-treated assay. […]

[2] = molecular target: T2, wild-type PS1 γ-secretase (Homo sapiens, UniProt P49768); assay: In vitro N1-Sb1 γ-secretase assay, membrane of N2a cells expressing wild-type PS1; type: biochemical, murine; conditions: wild-type PS1; read-out: IC50 of γ-secretase inhibition (N1-Sb1 cleavage)
T2 construct: total membrane
Procedure: as §1
(§2) An in vitro γ-secretase assay using a novel recombinant APP-derived substrate (termed “Sb4”) is disclosed in co-pending application U.S. Ser. No. 12/776,141. In the present assay based on a Notch-derived substrate, N1-Sb1 was incubated with the cell membrane fraction, prepared as described above, in the presence of 0.25% CHAPSO and 1×PIPES buffer (50 mM PIPES, pH 7.0, 150 mM KCl, 5 mM CaCl2, 5 mM MgCl2. The reaction was incubated at 37° C. for 2 hours. The Perkin Elmer AlphaScreen™ detection system was employed to assay for Notch cleavage. AlphaScreen (PerkinElmer Life and Analytical Sciences, Shelton, Conn.) is a bead based non-radioactive Amplified Luminescent Proximity Homogeneous Assay (ALPHA). When a biological interaction brings the beads together, a cascade of chemical reactions acts to produce a greatly amplified signal. Specifically, upon laser excitation, a photosensitizer in the “Donor” bead converts ambient (triplet) oxygen to the more reactive singlet state. The singlet state oxygen molecules diffuse into the solvent, and may react with a thioxene derivative in the Acceptor bead if nearby, generating chemiluminescence at 370 nm that further activates fluorophores contained in the same bead. The fluorophores subsequently emit light at 520-620 nm. In the absence of a specific biological interaction, the singlet state oxygen molecules produced by the donor bead go undetected without the close proximity of the acceptor bead. As a result no fluorescence signal at 520-620 nm is produced.
(§3) In the present system, antibody SM320, Protein A-conjugated acceptor beads, and Streptavidin-conjugated donor beads (PerkinElmer) were added to the reaction at a final concentration of 0.2 μg/ml, 2.5 μg/ml and 5 μg/ml, respectively (diagrammed in FIG. 5A). The reaction was incubated in the dark at room-temperature for 4 hours. The ALPHA signal was detected using the Envision plate reader (Perkin Elmer). The reactions were excited at 680 nm and signal was detected at 615 nm.
(§4) The effects of PS1 FAD mutations on Notch cleavage were determined using the new γ-secretase assay described in Example 2. The activities of two PS1 FAD mutations—PS1 M146L and E280A were compared against wild-type PS1 (WT), which has been previously studied (25). Total membrane was isolated from N2a cells that stably express WT, M146L, or E280A mutants. N1-Sb1 was incubated with these membranes and the resulting cN1-Sb1 was detected with SM320. […] The M146L and E280A mutants had 40% and 14% activity remaining, respectively, compared to the activity of the wild type (FIG. 7A). […]

[3] = molecular target: T3, M146L PS1 γ-secretase (Homo sapiens, UniProt P49768, M146L); assay: In vitro N1-Sb1 γ-secretase assay, membrane of N2a cells expressing M146L PS1; type: biochemical, murine; conditions: M146L PS1; read-out: IC50 of γ-secretase inhibition (N1-Sb1 cleavage)
T3 construct: total membrane
Procedure: as §1, §2, §3, §4

[4] = molecular target: T4, E280A PS1 γ-secretase (Homo sapiens, UniProt P49768, E280A); assay: In vitro N1-Sb1 γ-secretase assay, membrane of N2a cells expressing E280A PS1; type: biochemical, murine; conditions: E280A PS1; read-out: IC50 of γ-secretase inhibition (N1-Sb1 cleavage)
T4 construct: total membrane
Procedure: as §1, §2, §3, §4

Structure (SMILES) | IC50 [1] | IC50 [2] | IC50 [3] | IC50 [4] | cN1-Sb1 levels in DMSO-treated assay versus inhibitor-treated assay ([1]; fold higher in DMSO)
CC(NC(=O)Cc1cc(F)cc(F)c1)C(=O)NC1N=C(c2ccccc2)c2ccccc2N(C)C1=O (stereo not drawn) [Compound E] | 1 nM | 0.78 nM | 0.76 nM | 0.71 nM | 
CC(C)C[C@H](NC(=O)[C@H](Cc1ccccc1)C[C@@H](O)[C@H](Cc1ccccc1)NC(=O)OC(C)(C)C)C(=O)N[C@@H](Cc1ccccc1)C(N)=O [L458] | 0.7 nM | 0.5 nM | 0.45 nM | 0.46 nM | 10 fold
